Target: T1, Human AMPK α2β2γ1 (Homo sapiens, UniProt O43741+P54619+P54646)
T1 construct: The full length cDNAs of human AMPK β2 (NM_005399.3) and human AMPK α2 (NM_006252.3); The full length cDNAs of human AMPK β2 (NM_005399.3); the full length cDNA of human AMPK γ1 (NM_002733.3); 6xHis (N); made in house; host or cells: Escherichia coli BL21 CodonPlus (DE3)-RIL (AMPK); BL21 Star (DE3) (CaMKK2)
Assay: Test Example 2: AMPK activator evaluation, mobility-shift kinase assay after CaMKK2 phosphorylation
Format: biochemical
Conditions: for EC150: compound concentration showing 150% relative to the control (100%); for Emax: maximum rate of increase in activity within the measurement range, control = 100%
Procedure: The full length cDNAs of human AMPK β2 (NM_005399.3) and human AMPK α2 (NM_006252.3) were inserted into the MCS1 and MCS2 of the pETDuet-1 vector to prepare a human AMPK β2 and human AMPK α2 (6× His tag at the 5′ terminus) expressing plasmid. The plasmid was cotransfected with an expression plasmid, in which the full length cDNA of human AMPK γ1 (NM_002733.3) had been inserted into pET28b(+), into BL21 CodonPlus (DE3)-RIL to obtain an expression strain. The expression strain was cultured in TB medium, followed by induction with 0.5 mM IPTG, and cultured at 25° C. for 3 hours and then harvested. After ultrasonication, supernatant was collected and applied to Histrap FF column (GE) and RESOUECE Q column (GE) to prepare 12.5 mg of purified sample containing three types of subunit from 1.8 L of broth.
An expression vector, in which the full length cDNA of human CAMKK β (NM_172226.1) had been inserted into pGEX-6P-3, was transfected into BL21 Star (DE3). The expression strain was cultured in TB medium, followed by induction with 0.5 mM IPTG, and cultured at 25° C. for 3 hours and then harvested. After ultrasonication, supernatant was collected and applied to GSTrap FF column (GE) to prepare 14 mg of GST-fused CAMKK β from 720 ml of broth.
Thus, phosphorylation treatment was carried out as pretreatment.
Human AMPK α2β2γ1 in an amount to give a conversion rate of approximately 10% by reaction for 2 hours, and CaMKK2 in an amount capable of sufficiently imparting activity to AMPK for one hour were mixed in a buffer solution consisting of a 50 mM HEPES-NaOH buffer solution (pH 7.0), 100 mM NaCl, 5 mM magnesium chloride, 0.1% bovine serum albumin, 0.2 mM sodium orthovanadate(V), 1 mM ethylene glycol-bis(2-aminoethyl ether)-N,N,N′,N′-tetraacetic acid (EGTA), 5 mM disodium β-glycerophosphate, 1 mM dithiothreitol and 0.2 mM ATP, and the obtained liquid was left to stand at 25° C. for 1 to 1.5 hours to sufficiently phosphorylate AMPK.
After that, to the enzyme liquid, which had been subjected to phosphorylation treatment, a compound dissolved in DMSO was added so as to have a 1% DMSO concentration. The obtained liquid was left to stand for 10 minutes.
To the liquid, a substrate solution consisting of a 50 mM HEPES-NaOH buffer solution (pH 7.0), 100 mM NaCl, 10 mM magnesium chloride, 0.1% bovine serum albumin, 0.2 mM sodium orthovanadate(V), 1 mM ethylene glycol-bis(2-aminoethyl ether)-N,N,N′,N′-tetraacetic acid (EGTA), 5 mM disodium β-glycerophosphate, 2 mM dithiothreitol, 0.4 mM ATP and 3 μM FL-Peptide 7 (manufactured by Caliper Life Sciences, Inc.) was added in equal amount (10 μl in total). The obtained liquid was allowed to react at 25° C. for 2 hours, and 10 μl of 20 mM EDTA was then added thereto to stop the reaction.
To detect phosphorylated fluorescent substrates, the reaction liquid was applied to a measuring device, LabChip EZ Reader II manufactured by Caliper Life Science, Inc., for detecting fluorescence by using differences in mobility due to differences in charge. The setting conditions for the device were pressure, −1.5 PSI; upstream voltage, −2250 V; downstream voltage, −400 V; post sample buffer sip time, 40 seconds; final delay, 120 seconds; and peak order, Product First.
A conversion rate was calculated from the peak heights of the resulting substrate and product. The conversion rate when not containing a compound was used as a control, and a concentration dependent curve was made by plotting the rate of increase in activity to the control at each concentration of a compound.

T1 sequence (P54646 whole entry): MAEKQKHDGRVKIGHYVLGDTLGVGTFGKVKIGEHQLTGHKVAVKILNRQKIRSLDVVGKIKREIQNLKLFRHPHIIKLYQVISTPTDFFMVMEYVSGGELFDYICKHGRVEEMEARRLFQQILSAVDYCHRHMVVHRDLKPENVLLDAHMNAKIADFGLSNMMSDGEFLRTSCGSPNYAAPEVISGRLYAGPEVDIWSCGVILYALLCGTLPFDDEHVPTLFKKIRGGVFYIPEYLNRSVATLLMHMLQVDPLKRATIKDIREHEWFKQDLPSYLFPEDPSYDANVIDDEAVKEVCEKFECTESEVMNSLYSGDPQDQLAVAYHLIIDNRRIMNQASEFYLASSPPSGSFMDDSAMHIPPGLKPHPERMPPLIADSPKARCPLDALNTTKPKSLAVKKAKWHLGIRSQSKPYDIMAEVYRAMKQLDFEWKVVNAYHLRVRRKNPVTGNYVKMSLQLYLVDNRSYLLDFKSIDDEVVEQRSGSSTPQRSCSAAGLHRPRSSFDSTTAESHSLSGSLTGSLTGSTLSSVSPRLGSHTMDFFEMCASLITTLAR
T1 sequence (O43741 whole entry): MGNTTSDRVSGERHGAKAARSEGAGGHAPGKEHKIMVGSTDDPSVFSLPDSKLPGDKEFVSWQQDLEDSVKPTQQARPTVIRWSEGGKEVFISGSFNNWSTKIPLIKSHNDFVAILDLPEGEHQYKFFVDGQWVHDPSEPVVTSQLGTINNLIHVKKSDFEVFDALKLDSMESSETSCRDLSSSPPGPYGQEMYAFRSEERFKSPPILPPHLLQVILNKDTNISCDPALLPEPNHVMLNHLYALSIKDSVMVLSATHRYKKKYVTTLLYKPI
T1 sequence (P54619 whole entry): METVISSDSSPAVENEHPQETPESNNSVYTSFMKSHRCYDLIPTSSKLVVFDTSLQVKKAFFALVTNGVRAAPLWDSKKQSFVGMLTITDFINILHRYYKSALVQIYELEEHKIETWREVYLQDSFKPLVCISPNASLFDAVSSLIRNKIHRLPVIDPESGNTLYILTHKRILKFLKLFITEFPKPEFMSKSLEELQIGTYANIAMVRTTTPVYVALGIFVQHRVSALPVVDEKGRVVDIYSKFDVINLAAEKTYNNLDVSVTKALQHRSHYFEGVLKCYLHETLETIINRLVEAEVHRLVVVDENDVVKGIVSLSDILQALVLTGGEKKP

SMILES	EC150	Emax
O[C@@H]1CO[C@H]2[C@@H]1OC[C@H]2Oc1nc2nc(NC3CCc4cccnc43)c(Cl)cc2[nH]1 (stereo partly shown) [Compound I-1-116]	94 nM	450%
Cc1cccc(F)c1CNc1nc2nc(O[C@@H]3CO[C@H]4[C@@H]3OC[C@H]4O)[nH]c2cc1Cl [Compound I-1-6]	21 nM	496%
CCc1ccc(CNc2nc3nc(O[C@@H]4CO[C@H]5[C@@H]4OC[C@H]5O)[nH]c3cc2Cl)s1 [Compound I-2-75]	26 nM	542%
CN(C)CCCc1cc(F)c(CNc2nc3nc(O[C@@H]4CO[C@H]5[C@@H]4OC[C@H]5O)[nH]c3cc2Cl)c(F)c1 [Compound I-2-222]	16 nM	532%
O=C(Nc1nc2nc(O[C@@H]3CO[C@H]4[C@@H]3OC[C@H]4O)[nH]c2cc1Cl)c1ccc2ccccc2c1 [Compound I-1-80]	880 nM	397%
O=C1CCCN1CCOc1cc(F)c(CNc2nc3nc(O[C@@H]4CO[C@H]5[C@@H]4OC[C@H]5O)[nH]c3cc2Cl)c(F)c1 [Compound I-2-188]	15 nM	603%
CN1CCC(Oc2cc(F)c(CNc3nc4nc(O[C@@H]5CO[C@H]6[C@@H]5OC[C@H]6O)[nH]c4cc3Cl)c(F)c2)CC1 [Compound I-2-192]	7.6 nM	568%
Cn1cc(-c2cc(F)c(CNc3nc4nc(O[C@@H]5CO[C@H]6[C@@H]5OC[C@H]6O)[nH]c4cc3Cl)c(F)c2)ccc1=O [Compound I-2-217]	47 nM	637%
O[C@@H]1CO[C@H]2[C@@H]1OC[C@H]2Oc1nc2nc(NC3COc4ccccc43)c(Cl)cc2[nH]1 (stereo partly shown) [Compound I-1-11]	170 nM	512%
O=C(c1cc(F)c2c(c1)CCC2Nc1nc2nc(O[C@@H]3CO[C@H]4[C@@H]3OC[C@H]4O)[nH]c2cc1Cl)N1CC[C@H](F)C1 (stereo partly shown) [Compound I-2-153]	5.2 nM	546%
COCCOc1cc(F)c(CSc2nc3nc(O[C@@H]4CO[C@H]5[C@@H]4OC[C@H]5O)[nH]c3cc2Cl)c(F)c1 [Compound I-1-4]	40 nM	766%
OCCn1ccc(CNc2nc3nc(O[C@@H]4CO[C@H]5[C@@H]4OC[C@H]5O)[nH]c3cc2Cl)n1 [Compound I-2-62]	94 nM	388%
OC[C@@H]1C[C@H](Oc2nc3nc(NCc4c(F)cccc4F)c(Cl)cc3[nH]2)CO1 [Compound I-2-19]	74 nM	506%
O[C@@H]1CO[C@H]2[C@@H]1OC[C@H]2Oc1nc2nc(NCc3c(F)cccc3F)c(Cl)cc2[nH]1 [Compound I-1-1]	29 nM	484%
O[C@@H]1CO[C@H]2[C@@H]1OC[C@H]2Oc1nc2nc(NCc3c(F)cc(-c4cnn(CCN5CCOCC5)c4)cc3F)c(Cl)cc2[nH]1 [Compound I-2-228]	8.5 nM	528%
CCOCCOc1cc(F)c2c(c1)CCC2Nc1nc2nc(O[C@@H]3CO[C@H]4[C@@H]3OC[C@H]4O)[nH]c2cc1Cl (stereo partly shown) [Compound I-2-223]	2.8 nM	649%
COCCOc1cc(F)c2c(c1)CC[C@@H]2Nc1nc2nc(O[C@@H]3CO[C@H]4[C@@H]3OC[C@H]4O)[nH]c2cc1Cl [Compound I-2-220]	1.1 nM	669%
O[C@@H]1CO[C@H]2[C@@H]1OC[C@H]2Oc1nc2nc(NCc3c(F)cccc3F)c(F)cc2[nH]1 [Compound I-1-10]	740 nM	406%

SMILES	EC150	Emax
O[C@@H]1CO[C@H]2[C@@H]1OC[C@H]2Oc1nc2nc(NCc3cccs3)c(Cl)cc2[nH]1 [Compound I-1-52]	100 nM	407%
OCCOc1cc(F)c(CNc2nc3nc(O[C@@H]4CO[C@H]5[C@@H]4OC[C@H]5O)[nH]c3cc2Cl)c(F)c1 [Compound I-1-15]	5.8 nM	894%
COCCOc1cc(F)c(CNc2nc3nc(O[C@@H]4CO[C@H]5[C@@H]4OC[C@H]5O)[nH]c3cc2Cl)c(F)c1 [Compound I-1-13]	17 nM	838%
OCCO[C@@H]1CO[C@H]2[C@@H]1OC[C@H]2Oc1nc2nc(NCc3c(F)cccc3F)c(Cl)cc2[nH]1 [Compound I-1-119]	84 nM	432%
CC(C)(O)CCc1cc(F)c(CNc2nc3nc(O[C@@H]4CO[C@H]5[C@@H]4OC[C@H]5O)[nH]c3cc2Cl)c(F)c1 [Compound I-2-233]	9.3 nM	507%
O[C@@H]1CO[C@H]2[C@@H]1OC[C@H]2Oc1nc2nc(NC3CCc4ccccc43)c(Cl)cc2[nH]1 (stereo partly shown) [Compound I-1-8]	67 nM	617%
O=C(c1cc(F)c2c(c1)CCC2Nc1nc2nc(O[C@@H]3CO[C@H]4[C@@H]3OC[C@H]4O)[nH]c2cc1Cl)N1CCCCC1 (stereo partly shown) [Compound I-2-147]	4.5 nM	532%
O[C@@H]1CO[C@H]2[C@@H]1OC[C@H]2Oc1nc2nc(NCc3c(F)cc(C4=CCNCC4)cc3F)c(Cl)cc2[nH]1 [Compound I-2-209]	22 nM	558%
COCCOc1cc(F)c2c(c1)CCC2Nc1nc2nc(O[C@@H]3CO[C@H]4[C@@H]3OC[C@H]4O)[nH]c2cc1Cl (stereo partly shown) [Compound I-1-38]	1.2 nM	568%
O[C@@H]1CO[C@H]2[C@@H]1OC[C@H]2Oc1nc2nc(NCc3c(F)cc(OCC4CNCCO4)cc3F)c(Cl)cc2[nH]1 (stereo partly shown) [Compound I-2-119]	13 nM	581%
Cn1cc(-c2cc(F)c3c(c2)CCC3Nc2nc3nc(O[C@@H]4CO[C@H]5[C@@H]4OC[C@H]5O)[nH]c3cc2Cl)cn1 (stereo partly shown) [Compound I-2-239]	5.6 nM	535%
COC/C=C/c1cc(F)c2c(c1)CCC2Nc1nc2nc(O[C@@H]3CO[C@H]4[C@@H]3OC[C@H]4O)[nH]c2cc1Cl (stereo partly shown) [Compound I-2-238]	4.1 nM	553%
O[C@@H]1CO[C@H]2[C@@H]1OC[C@H]2Oc1nc2nc(NCc3c(F)cccc3F)c(C(F)(F)F)cc2[nH]1 [Compound I-2-22]	130 nM	480%
O[C@@H]1CO[C@H]2[C@@H]1OC[C@H]2Oc1nc2nc(NCc3c(F)cc(Cl)cc3F)c(Cl)cc2[nH]1 [Compound I-1-14]	42 nM	750%
CS(=O)(=O)NCCOc1cc(F)c(CNc2nc3nc(O[C@@H]4CO[C@H]5[C@@H]4OC[C@H]5O)[nH]c3cc2Cl)c(F)c1 [Compound I-2-93]	9.9 nM	602%
O[C@@H]1CO[C@H]2[C@@H]1OC[C@H]2Oc1nc2nc(/C=C/c3ccc(F)cc3F)c(Cl)cc2[nH]1 [Compound I-2-244]	92 nM	517%
COCCOc1cc(F)c2c(c1)OCC2Nc1nc2nc(O[C@@H]3CO[C@H]4[C@@H]3OC[C@H]4O)[nH]c2cc1Cl (stereo partly shown) [Compound I-2-185]	6 nM	569%

— patent publication US10123994B2, “Heterocyclic derivative having AMPK-activating activity” (SHIONOGI & CO., LTD., priority 2014, dated 2018)
